According to PMC8708875 (Pharmaceutics, 2021):
Read-outs that look alike come from different tables or passages of the source. Square brackets hold non-standard residues; d marks the D form. Ends that are not written are not given here. Peptide text beside a SMILES is read from it.

Tests used:
THOP1 [1] = molecular target: THOP1 (Rattus norvegicus, UniProt P24155); assay type: in vitro ADME
Method: (§1) Peptide hydrolyses were analyzed by reverse phase liquid chromatography (HPLC) using a C18 µBond-pak column (4.6 × 250 mm; Millipore Corp.) with a linear gradient of 5–65% acetonitrile in 0.1% TFA for 20 min at a flow rate of 1 mL/min, and absorbance monitored at a wavelength of 214 nm, as previously described. Cleaved peptide bonds were identified by mass spectrometry sequencing after isolating the cleavage fragments manually after HPLC, as previously described (data not shown). Control enzyme assays were conducted using bradykinin ([…]; 50 µM) as a standard substrate.

Nln = assay type: in vitro ADME
Method: as §1

C57BL/6N (WT) mice = assay type: in vivo, mouse
Method: In vivo experiments were conducted with male C57BL/6N (WT) mice 12–16 weeks-old (University of São Paulo Medical School Animal Facility, SP, Brazil). Mice were maintained in individual ventilated cages (Amresco, SP, Brazil), under standardized conditions with an artificial 12 h dark–light cycle, with free access to standard chow (Nuvital Nutrientes S.A., Colombo, PR, Brazil) and drinking water ad libitum. The number of animals used was the minimum necessary to obtain statistically significant results and they were maintained and used in accordance with the guidelines of the National Council for Control of Animal Experiments (CONCEA), following international norms of animal care and maintenance. Thus, we hereby state that all experimental protocols were previously approved by University of São Paulo Ethic committee councils from Biomedical Science Institute (approval number for mice experimentation ICB/USP 22/2017).
WT mice were fasted for 12 h and blood samples were taken before and at 15, 30, 60, 90, and 120 min after the intraperitoneal (ip) injection of 2 g/kg glucose. Glycemia was measured using a glucometer (Accu-Check Performa, ROCHE, São Paulo, Brazil). Peptides were evaluated to affect glucose uptake either after ip or oral (by gavage) administration. After 20 min glucose was administrated (blood glucose levels reached 400 mg/dL), animals received ip or oral administration of either saline, insulin (0.75 IU/kg), or peptide (Ric2 or Ric4; 600 µg/kg). In addition, a group of animals received oral administration of either water or Ric2 or Ric4 (600 µg/kg). Glycemia was measured as indicated following vehicle, insulin, or peptide administration.

in vitro [2] = assay type: in vitro ADME, mouse; conditions: other tissue homogenate; mouse liver crude extract 30 µg; peptide 50 µM; 20 min; 250 µL TBS (0.025 M Tris-HCl, 0.125 M NaCl); RP-HPLC C18, UV 214 nm; average of three independent determinations; read-out: % of peptide degraded, Liver Extract (30 µg)
Method: as §1

in vitro [3] = assay type: in vitro ADME; conditions: other tissue homogenate, mouse kidney crude extract 3 µg, peptide 50 µM, 250 µL TBS (0.025 M Tris-HCl, 0.125 M NaCl), RP-HPLC C18, UV 214 nm, average of three independent determinations, read-out: % of peptide degraded, Kidney Extract (3 µg)
Method: as §1
(IGF1) Rev: AGAGGTGTGAAGAC-
(GLUT4) Rev: CAGCTCCTATGGTGGCG-
Glyceraldehyde 3-phosphate de- TGCCAGCCTCGTCC 75 BC_085275 hydrogenase (GAPDH) Rev: CAGGCGCCCAATAC-
Figure S1. Typical experiments to evaluate the enzymatic stability of Ric4 and derivatives on kidney tissue extracts. In order to determine if the peptides investigated herein were substrates of tissue peptidases, 50 μM of each peptide was individually incubated for 20 min in the presence of increas-ing crude kidney tissue extracts (0 µg, 3 µg or 30 µg, as indicated), in a final volume of 250 μl of 0,025 M Tris-HCl, containing 0.125 M NaCl (TBS). Peptide hydrolyses were analyzed by reverse phase liquid chromatography (HPLC) using a C18 µBond-pak column (4.6 x 250 mm; Millipore Corp.) with a linear gradient of 5-65% acetonitrile in 0.1 % TFA for 20 min at a flow rate of 1 mL/min, (1 picture or pasted object on this page, not shown here)

THOP1 [4] = assay: THOP1 (0.1 ng), homogeneous recombinant enzyme
neurolysin (Nln) = assay: Nln (0.1 ng), homogeneous recombinant enzyme
[5] = test system: differentiated C2C12 cells; assay: Glucose uptake in C2C12 myotubes; assay type: cell-based, mouse; conditions: peptides 100 µM, insulin 100 nM; 30 min, 37 °C; 3H-glucose (1 µCi/mL) or 2-NBDG (80 µM)
[6] = crude tissue extract (liver, 30 µg); conditions: WT mice, up to 20 min
[7] = crude tissue extract (kidney, 3 µg); conditions: WT mice, up to 20 min

Chain of THOP1 (Rattus norvegicus, UniProt P24155) (P24155 whole entry, the tested form may be a part): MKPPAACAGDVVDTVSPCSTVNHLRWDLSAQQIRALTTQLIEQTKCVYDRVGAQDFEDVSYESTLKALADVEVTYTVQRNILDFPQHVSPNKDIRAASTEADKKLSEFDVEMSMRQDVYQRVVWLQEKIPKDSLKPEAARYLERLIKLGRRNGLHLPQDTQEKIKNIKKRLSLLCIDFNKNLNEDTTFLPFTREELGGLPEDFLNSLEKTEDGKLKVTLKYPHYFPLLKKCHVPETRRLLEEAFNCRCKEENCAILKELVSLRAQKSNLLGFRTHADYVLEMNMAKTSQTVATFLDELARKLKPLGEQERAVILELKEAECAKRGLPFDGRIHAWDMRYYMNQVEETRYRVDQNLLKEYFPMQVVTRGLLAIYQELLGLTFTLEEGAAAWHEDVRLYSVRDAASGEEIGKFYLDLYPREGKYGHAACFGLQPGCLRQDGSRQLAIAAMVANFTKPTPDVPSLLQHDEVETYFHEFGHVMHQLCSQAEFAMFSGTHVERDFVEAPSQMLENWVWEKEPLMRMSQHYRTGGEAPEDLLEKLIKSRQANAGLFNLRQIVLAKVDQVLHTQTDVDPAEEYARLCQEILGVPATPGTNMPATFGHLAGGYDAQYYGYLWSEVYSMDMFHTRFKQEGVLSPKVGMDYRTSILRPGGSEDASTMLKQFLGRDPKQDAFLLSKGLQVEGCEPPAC

In the case of RPPGFSPFR [Bradykinin], the “% of peptide degraded, THOP1” value (THOP1 [1]) is reported as 11.93% and the “% of peptide degraded, Nln” value (Nln) is reported as 14.51%.
With “Ac-LASVSTVLTSKYR-NH2 [Ric4-2, Ric4 derived peptide]” the “blood glucose levels in GTT, oral administration” value (C57BL/6N (WT) mice; WT mice fasted 12 h, glucose 2 g/kg ip at time zero, peptide 600 µg/kg orally by gavage) was “ability to reduce blood glucose levels”.
Work on `CC(=O)N[C@@H](CC(C)C)C(=O)N[C@@H](C)C(=O)N[C@@H](CO)C(=O)N[C@H](C(=O)N[C@@H](CO)C(=O)N[C@H](C(=O)N[C@H](C(=O)N[C@H](CC(C)C)C(=O)N[C@H](C(=O)N[C@@H](CO)C(=O)N[C@@H](CCCCN)C(=O)N[C@@H](Cc1ccc(O)cc1)C(=O)N[C@@H](CCCNC(=N)N)C(N)=O)[C@@H](C)O)C(C)C)[C@@H](C)O)C(C)C` [RIC4-16] (Ac-LASVSTV[dL]TSKYR-NH2) yielded a metabolised at 20 min (in vitro [2]) of 26% and a metabolised at 20 min (in vitro [3]) of 12.5%.
For Ac-LASVSTVLTSKYR-NH2, the not cleaved (THOP1 [4]) was 4.55 % of peptide degraded and the not cleaved (neurolysin (Nln)) was 1.18 % of peptide degraded.
For Ac-LASVSTVLTSKYR-NH2 [RIC4-2], the metabolised at 20 min (in vitro [2]) was 70.2% and the metabolised at 20 min (in vitro [3]) was 60%.
For “Ac-LASVSTV[dL]TSKYR-NH2 [Ric4-16, Ric4 derived peptide]”, the “glucose uptake in differentiated C2C12 cells” value [5] was “efficiently induced glucose uptake” and the oral bioavailability (C57BL/6N (WT) mice; mouse, in vivo, po) was “no oral bioavailability”.
LASVSTVLTSKYR [RIC4] gave a metabolised at 20 min (in vitro [2]) of 62.4% and a metabolised at 20 min (in vitro [3]) of 22.6%.
In the case of LASVSTVLTSKYR, the cleaved bond [6] is reported as “Leu8-Thr9, first_seen”, the cleaved bond [7] is reported as “Leu8-Thr9, first_seen” and the not cleaved (THOP1 [4]) is reported as 2.22 % of peptide degraded. The not cleaved (neurolysin (Nln)) was 4.69 % of peptide degraded.
